{
  "source": "paper PMC12121777",
  "about": "(PLOS One, 2025)",
  "origin": "cited, not measured here",
  "system": "Mtb",
  "parameters": "method as in PMID 33462533",
  "conditions": "cited from earlier work",
  "data": [
    {"smiles": "O=c1nc(N2CCN(CC3CCCCC3)CC2)sc2c([N+](=O)[O-])cc(C(F)(F)F)cc12", "note": "[macozinone]", "values": [
      {"measurement": "MIC for Mtb", "value": 2, "unit": "nM"}
    ]}
  ]
}
